Laboratory results taken from PubChem BioAssay (NCI).
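Exposure lasted 48 hours, with cells grown in 96-well plates and compounds tested at five concentrations. Abbreviation: GI50, concentration required for 50% inhibition of growth. At the TGI there is no net growth.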

How the values were obtained:
Assay in all cases: DTP human tumour cell line panel, 48 h
SF-295 CNS = system: SF-295 CNS
TK-10 renal = system: TK-10 renal
SNB-75 CNS = system: SNB-75 CNS
HCC-2998 colon = system: HCC-2998 colon
NCI-H23 lung = system: NCI-H23 lung
HCT-15 colon = system: HCT-15 colon
UACC-257 melanoma = system: UACC-257 melanoma
UACC-62 melanoma = system: UACC-62 melanoma
MOLT-4 leukemia = system: MOLT-4 leukemia
HOP-92 NSCLC = system: HOP-92 NSCLC

Compound | TGI (SF-295 CNS) | TGI (TK-10 renal) | TGI (SNB-75 CNS) | TGI (HCC-2998 colon) | TGI (NCI-H23 lung) | TGI (HCT-15 colon) | TGI (UACC-257 melanoma) | TGI (UACC-62 melanoma) | GI50 (MOLT-4 leukemia) | TGI (MOLT-4 leukemia) | GI50 (SF-295 CNS) | GI50 (TK-10 renal) | GI50 (SNB-75 CNS) | GI50 (HCC-2998 colon) | GI50 (NCI-H23 lung) | GI50 (HCT-15 colon) | GI50 (UACC-257 melanoma) | GI50 (UACC-62 melanoma) | GI50 (HOP-92 NSCLC) | TGI (HOP-92 NSCLC)
O=C1c2ccccc2-c2cc3ccccc3c(=O)n21 | > 100 µM | > 100 µM | > 100 µM | > 100 µM | > 100 µM | > 100 µM | > 100 µM | > 100 µM |  |  |  |  |  |  |  |  |  |  |  | 
COc1ccc(C[C@H]2C[C@@H](O)[C@@H](C)C/C=C/Cc3cccc(O)c3C(=O)O2)cn1 | 41.5 µM | 72.3 µM | 73.4 µM | 44.8 µM | 56.8 µM | 88.8 µM | 71.4 µM | 64.2 µM | 35.4 µM | > 100 µM | 18 µM | 24.5 µM | 17 µM | 17.4 µM | 24.2 µM | 28.9 µM | 21.5 µM | 22.1 µM |  | 
Cc1nnc2n1N=C(CC(=O)c1ccc(O)cc1O)CN2N | > 100 µM | > 100 µM |  | > 100 µM | > 100 µM | 29.7 µM | > 100 µM | > 100 µM |  |  |  |  |  |  |  |  |  |  |  | 
S=C(Nc1ccccc1)Nc1[nH]c(=S)sc1-c1nc2ccccc2[nH]1 | > 100 µM | > 100 µM | 78.5 µM | > 100 µM | > 100 µM | > 100 µM | > 100 µM | > 100 µM |  | > 100 µM |  |  |  |  |  |  |  |  |  | 
Cc1ccc(NCSc2ccc(Cl)cc2)cc1 | > 100 µM | > 100 µM | 45.5 µM | > 100 µM | > 100 µM | > 100 µM | > 100 µM | > 100 µM | 6.15 µM | > 100 µM | 24.9 µM | 51.8 µM | 9.92 µM | > 100 µM | 63.4 µM | > 100 µM | > 100 µM | 87.2 µM |  | 
O=C1[C@H]2C(c3ccccc3)=NN(C(=O)c3ccccc3)[C@H]2C(=O)N1c1ccccc1 | > 100 µM | > 100 µM | > 100 µM |  | > 100 µM | > 100 µM | > 100 µM | > 100 µM |  | > 100 µM |  |  |  |  |  |  |  |  |  | 
O=C(/C=C/N1CCN(c2cccc(C(F)(F)F)c2)CC1)c1ccc(Cl)cc1Cl | 32.4 µM | 87.3 µM |  |  | 75.3 µM | 53.9 µM | 61 µM | 41.8 µM | 28.8 µM | 70.2 µM | 14.7 µM | 30.1 µM |  |  | 23.2 µM | 26.8 µM | 26.5 µM | 21.4 µM | 20.6 µM | 50.7 µM
COC(=O)c1cc(Nc2ccc(O)c3c2C(=O)c2c([N+](=O)[O-])ccc(O)c2C3=O)cc(C(=O)OC)c1 | > 100 µM |  |  | > 100 µM |  | > 100 µM | > 100 µM | > 100 µM | 6.37 µM | > 100 µM | 21.8 µM |  |  | 4.39 µM |  | 2.77 µM | 3.23 µM | 4.63 µM | 22 µM | > 100 µM
Cc1ccc([P+](Cc2ccc([N+](=O)[O-])cc2)(c2ccc(C)cc2)c2ccc(C)cc2)cc1 | 18.6 µM |  | 8.77 µM | 11.8 µM |  | 46.2 µM | 5.3 µM | 6.34 µM | 5.97 µM | 29.3 µM | 5.24 µM |  | 1.99 µM | 2.87 µM |  | 18.2 µM | 1.69 µM | 1.43 µM |  | 
Brc1ccc2c(c1)C1(c3cc(Br)ccc3-2)c2cc(Br)ccc2-c2ccc(Br)cc21 | > 100 µM | > 100 µM |  | > 100 µM | > 100 µM | > 100 µM | > 100 µM | > 100 µM |  | > 100 µM |  |  |  |  |  |  |  |  |  | 
CC(CS(=O)(=O)Cc1ccccc1)C(N)=O (centres undefined) | > 100 µM | > 100 µM |  |  | > 100 µM | > 100 µM | > 100 µM | > 100 µM |  | > 100 µM |  |  |  |  |  |  |  |  |  | > 100 µM
O=C(O)c1cc(Cl)cc(NC(=O)C(Cl)Cl)c1Cl | > 100 µM | > 100 µM | > 100 µM | > 100 µM | > 100 µM | > 100 µM | > 100 µM | > 100 µM |  | > 100 µM |  |  |  |  |  |  |  |  |  | 
COC(=O)C(CC=O)C(=O)C(=O)Nc1cccc(C(F)(F)F)c1 (centres undefined) | > 100 µM | > 100 µM |  | > 100 µM | > 100 µM | > 100 µM | > 100 µM | > 100 µM |  | > 100 µM |  |  |  |  |  |  |  |  |  | > 100 µM
Cc1cc(N(CCC#N)S(=O)(=O)c2ccccc2)ccc1C=O | > 100 µM |  | > 100 µM | > 100 µM | > 100 µM | > 100 µM | > 100 µM | > 100 µM |  | > 100 µM |  |  |  |  |  |  |  |  |  | 
O=C(Oc1c(I)ccccc1=O)c1ccc([N+](=O)[O-])cc1 | 62.1 µM | > 100 µM |  | 49.5 µM | 99.6 µM | 31.7 µM | 35.1 µM | 51 µM |  |  |  |  |  |  |  |  |  |  |  | 
N#Cc1c2c(c(N=[N+]=[N-])n3c1nc1ccccc13)CCCC2 | 4.94 µM | 5.76 µM | 4.04 µM | 25.8 µM | 6.27 µM | 4.38 µM | 3.12 µM |  |  | 5.37 µM |  |  |  |  |  |  |  |  |  | 
CC(C)OP(=O)(OC(C)C)C(N(C)C)P(=O)(OC(C)C)OC(C)C.[Cl][Sn]([Cl])([Cl])[c]1ccccc1 | 9.98 µM | > 100 µM | 39.5 µM | 7.46 µM | 31.3 µM | > 100 µM | 8.95 µM |  | 1.97 µM | 7.39 µM | 4.15 µM | 14.4 µM | 4.01 µM | 1.79 µM | 4.84 µM | 3.11 µM | 2.79 µM |  |  | 
CC(=O)NC1C(OCc2ccccc2)OC(COC(=O)CCCCCCCCCCNC(=O)c2cccc3c(=O)c4ccccc4[nH]c23)C(O)C1OC(C)C(=O)NC(C)C(=O)NC(CCC(N)=O)C(N)=O (centres undefined) | > 100 µM | > 100 µM | > 100 µM |  | > 100 µM | > 100 µM | > 100 µM | > 100 µM |  | > 100 µM |  |  |  |  |  |  |  |  |  | 
Cc1ccc(C2=Nc3c(N)ncnc3NC(c3cccc(Nc4ccnc5cc(C(F)(F)F)ccc45)c3)C2)cc1 (centres undefined) | 6.88 µM | 80.7 µM |  | 10.5 µM | 16.7 µM | 16.5 µM | 84.9 µM | 26.8 µM | 3.4 µM | > 100 µM | 2.33 µM | 6.89 µM |  | 2.59 µM | 3.6 µM | 2.82 µM | 10.2 µM | 4.78 µM | 2.54 µM | 9.75 µM
O=C1C=C(Nc2cccc(Br)c2)c2ccccc2C1=O | 15.1 µM |  | 5.01 µM | > 100 µM |  | > 100 µM | > 100 µM | 18 µM | 18.4 µM | 42.7 µM | 3.21 µM |  | 0.39 µM | 12.1 µM |  | 1.33 µM | 5.99 µM | 2.96 µM |  | 
Cc1nn(-c2ccccc2)c2c1C1C(=C(c3ccc(Cl)cc3)N2)C(=O)Nc2ccccc21 (centres undefined) | 7.77 µM |  | 96.3 µM | 10.6 µM | 47.9 µM | 18.6 µM | 25.4 µM | 15 µM | 2.85 µM | 8.9 µM | 2.49 µM |  | 3.9 µM | 3.43 µM | 4.46 µM | 3 µM | 4.33 µM | 3.56 µM |  | 
O=c1oc(-c2ccc(O)c(O)c2)cc2cc(O)cc(O)c12 | > 100 µM | > 100 µM |  | 57.7 µM | > 100 µM | > 100 µM | > 100 µM | > 100 µM | 22.4 µM | > 100 µM | 43.7 µM | 30.5 µM |  | 36.6 µM | 35.2 µM | 57.1 µM | 38 µM | 33.8 µM | 25.5 µM | > 100 µM
c1ccc2c(c1)CCCc1cc3ccccc3nc1-2 | > 100 µM | > 100 µM | > 100 µM | > 100 µM | > 100 µM | > 100 µM | > 100 µM | > 100 µM |  | > 100 µM |  |  |  |  |  |  |  |  |  | 
COC(=O)/C(=N\NC(=O)c1ccccc1O)C(C#N)c1ccc(Cl)cc1 (centres undefined) | > 100 µM | > 100 µM |  | 88.7 µM | 76 µM | > 100 µM | > 100 µM | > 100 µM |  | > 100 µM |  |  |  |  |  |  |  |  |  | > 100 µM
CCN(CC)CCOc1ccc(/C=C2\C[C@H]3[C@@H]4CC=C5C[C@@H](OC(C)=O)CC[C@]5(C)[C@H]4CC[C@]3(C)[C@H]2OC(C)=O)cc1OC | 24.3 µM | 20.5 µM |  | 12.5 µM | 16.1 µM | > 50 µM | 20 µM | 24.8 µM | 1.4 µM | 20.6 µM | 12.2 µM | 9.67 µM |  | 5.34 µM | 7.96 µM | 7.38 µM | 10.6 µM | 11 µM | 5.95 µM | 14.7 µM
COc1ccc(C2=CC(c3cc(OC)c(OC)c(OC)c3)n3ncnc3N2)cc1 (centres undefined) | 0.0742 µM | 31.7 µM |  | > 100 µM | 42 µM | > 100 µM |  | > 100 µM | 0.171 µM | > 100 µM | 0.0228 µM | 13 µM |  | 0.24 µM | 0.0875 µM | 0.042 µM |  | 0.0689 µM | 11.3 µM | 37.3 µM
CCC1OCCN1C(C)C (centres undefined) | > 100 µM | > 100 µM |  | > 100 µM | > 100 µM | > 100 µM | > 100 µM | > 100 µM |  | > 100 µM |  |  |  |  |  |  |  |  |  | 
